Data: patent US8372654B2, “Method for investigating the fate of a test compound or the stateof a biological system by means of NMR of hyperpolarised NMR active nuclei” (GE Healthcare Limited, priority 2001, dated 2013)
Values belong to the molecule of their own block, whether it stands above or below them.

Experiments:
[1] = benzoic acid metabolism study: iv administration to anaesthetised rats, urine collected; format: in vivo, rat
[2] = rat, in vivo, iv, 20 mg/kg
Protocol: (U-^13C)Paracetamol was administered intravenously at 20 mg/kg (at 0 and 3 hrs) to 4 anaesthetised rats, urine was collected from canulated urethra and bile was collected from canulated bile duct (2 rats only) at 0-3 and 3-6 hours. Bile (3-6 hrs) was extracted with dichloromethane and then fractionated by RP-hplc (C18 Kromasil, 25×1 cm, 5 um) using gradient elution with formic acid in water and formic acid in methanol).
Several metabolites were collected. […] The isolated material was then dried and an aliquot re-analysed by RP hplc indicating a peak purity of 96.7%, monitored by on-line UV detection (at 254 nm) and gave the expected (M+H)+ ion at 240 mass units by on-line electrospray ionisation mass spectrometry (EI-MS).

Molecule: O=[13C](O)c1ccccc1 [(^13C-carboxyl) Benzoic acid]
major metabolite in urine ([1]; rat urine after iv 10 mg/Kg at 0 and 2 hrs, isolated by SPE and RP-hplc): (^13C-carboxy) hippuric acid

metabolite identified in bile [2]: Paracetamol sulphate
Molecule: (U-^13C)Paracetamol

Molecule: (^13C-carboxyl) hippuric acid
level measured in urine ([1]; rat urine, 0-2 hr collection, after iv (13C-carboxyl) benzoic acid 10 mg/Kg): approximately 5 mg/ml
